GI50 and TGI data for twelve compounds are collected here from PubChem BioAssay (NCI).

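These data come from cells grown in 96-well plates and exposed to compound for 48 hours at five concentrations. GI50: concentration for 50% inhibition of growth. At the TGI there is no net growth.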

What all share (assay): NCI-60 cell line screen, 48 h
The test system of assay [1] is SK-OV-3 ovarian.
Assay [2] deals with UACC-257 melanoma.
Assay [3] relates to A549 NSCLC.
The test system of assay [4] is SK-MEL-28 melanoma.
Assay [5] concerns SNB-19 CNS.
The subject of assay [6] is HCT-116 colon.
Assay [7] relates to UACC-62 melanoma.
Assay [8] has as its system NCI-H522 lung.
The test system of assay [9] is A498 renal.
Assay [10] has as its system HOP-92 NSCLC.

For the compound `CC(C)=O.O=C([O-])C(F)(F)F.O=C([O-])C(F)(F)F.O=C([O-])C(F)(F)F.O=C([O-])C(F)(F)F.[Rh+2].[Rh+2]`, the GI50 in assay [1] was more than 100 µM; in assay [2] it was more than 100 µM; in assay [3] it was more than 100 µM; in assay [4], 94.3 µM; in assay [5] it was 60.4 µM; in assay [6], 54 µM. The GI50 in assay [7] is more than 100 µM. Also, the TGI in assay [1], in [2], in [3], in [4], in assay [5] and in assay [6] was more than 100 µM in each case. Further, the TGI in assay [7] was more than 100 µM.
As to `Cc1cc(C)nc(NS(=O)(=O)c2ccc(Nc3c4ccccc4nc4c(C(=O)Nc5ccc(S(=O)(=O)Nc6cc(C)on6)cc5)ccc(Cl)c34)cc2)n1`, the TGI is more than 100 µM in [1]; 51.4 µM in assay [8]; 91.3 µM in assay [2]; 38.3 µM in assay [9]; 69.4 µM in assay [4]; 48.9 µM in [5]. In addition, the TGI in assay [6] stood at 40.5 µM; in assay [7] it was 80.1 µM.
As for `S=c1nc(C(c2ccccc2)c2ccccc2)[nH][nH]1`, the TGI in assay [1], in assay [8], in [2], in assay [9], in [3] and in assay [4] was more than 100 µM in each case. Besides, the TGI in [5], in assay [6] and in assay [7] was more than 100 µM throughout.
For the compound `Cc1c(NC(=O)CCl)c(=O)oc2c(C)c3occc(=O)c3cc12`, the TGI in assay [1] turned out to be 32.8 µM; in assay [10], 27.5 µM; in assay [2], 34 µM; in assay [9] it was 31.7 µM; in [3] it was 35 µM; in assay [4], 39.2 µM. Further, the TGI in assay [5] stood at 33.6 µM; in [6], 25.9 µM.
Consider `COc1ccc(OC)c(NC(=O)c2cccc(NC3=C(Cl)C(=O)N(Cc4ccccc4)C3=O)c2)c1`, for which the GI50 in [1] was more than 100 µM; in [10], more than 100 µM; in assay [8] it was more than 100 µM; in assay [2], 23.5 µM; in assay [3] it was more than 100 µM; in assay [4], more than 100 µM. Also, the GI50 is more than 100 µM in assay [5], more than 86.2 µM in assay [6] and more than 63.1 µM in assay [7]. For the same compound, the TGI in assay [1], in assay [10], in assay [8], in [2], in assay [3] and in [4] was more than 100 µM in each case. The TGI in [5], in assay [6] and in [7] was more than 100 µM in each case.
Take `CCCCCCCN(CCCCCCC)C(=N)c1ccnc2ccccc12`: the GI50 is 1.64 µM in [1]; 1.33 µM in assay [10]; 1.65 µM in [8]; 1.72 µM in [2]; 1.77 µM in [3]; 1.68 µM in [4]. Besides, the results for the GI50 in [5] and in assay [7] were 1.79 µM and 1.52 µM, respectively. The TGI amounted to 3.14 µM in assay [1]; 3 µM in assay [10]; 3.41 µM in assay [8]; 3.5 µM in assay [2]; 3.41 µM in assay [3]; 3.21 µM in [4]. Also, the figures for the TGI in [5] and in assay [7] were 3.68 µM and 3.05 µM, respectively.
As to `O=C1CSC(c2ccc(-c3nc4ccccc4[nH]3)cc2)=N1`, the GI50 in assay [1] was more than 50 µM; in [10] it was more than 50 µM; in assay [8], 37.3 µM; in assay [2], 20.3 µM; in assay [3], 18.8 µM; in assay [5] it was more than 50 µM. Besides, the GI50 is 18.6 µM in [6] and 12.5 µM in assay [7]. The TGI in assay [1], in assay [10], in assay [8], in assay [2], in [3] and in assay [5] was more than 50 µM in each case. The TGI in assay [6] and in assay [7] was more than 50 µM throughout.
Turning to `COc1ccc(C(C#N)=C2C=CC(=NO)C=C2)cc1`, the GI50 in assay [1] was 29.6 µM; in assay [8], 1.23 µM; in [2] it was 10.5 µM; in [9], 6.39 µM; in [3], 16.5 µM; in [4], 28.7 µM. Also, the GI50 is 16.1 µM in assay [5], 2.27 µM in assay [6] and 8.34 µM in [7]. The TGI in assay [1] was 67.5 µM; in assay [8], 3.41 µM; in assay [2], 30.6 µM; in assay [9], 25.4 µM; in assay [3] it was 39.8 µM; in assay [4], 86.7 µM. For the same compound, the TGI in [5] was 32.1 µM; in assay [6], 5.55 µM; in [7], 21.9 µM.
As for `COc1cc(OC)cc(-c2nc3sccn3c2/C=N/N=C(N)N)c1`, the GI50 in assay [1] was 7.28 µM; in assay [8], 15.4 µM; in [2], 7.74 µM; in assay [9], 9.86 µM; in assay [3], 10 µM; in assay [5] it was 9.29 µM. In addition, the GI50 in assay [7] was 8.03 µM. Besides, the TGI was 15.5 µM in [1]; more than 50 µM in assay [8]; 16.1 µM in [2]; 17.3 µM in assay [9]; 19.8 µM in assay [3]; 19.3 µM in assay [5]. In addition, the TGI in [7] worked out at 14.8 µM.
For `CSC(=Nc1ccccc1Cl)NC(=O)c1ccc(Br)cc1`, the TGI in [1] was more than 100 µM; in assay [8] it was more than 100 µM; in [2], more than 100 µM; in [3] it was more than 100 µM; in [4] it was 66.3 µM; in assay [5] it was more than 100 µM. Moreover, the TGI in assay [6] and in assay [7] was more than 100 µM in each case.
Regarding `NCCOCn1cc(Cc2cccc(OCc3ccccc3)c2)c(=O)[nH]c1=O`, the TGI in assay [1], in [10], in assay [3], in [4], in assay [5] and in [6] was more than 100 µM in each case. For the same compound, the TGI in [7] was more than 100 µM.
For `CCN(CC)CCCOc1ccc2ncnc(Nc3ccc(Oc4cccc(C(F)(F)F)c4)c(Cl)c3)c2c1`, the GI50 in [10] was 1.23 µM; in [9], 0.229 µM; in assay [4], 1.63 µM; in assay [7], 1.76 µM. For the same compound, the TGI in [10] turned out to be 2.61 µM; in assay [9], 3.56 µM; in assay [4], 2.99 µM; in assay [7] it was 3.22 µM.
